We go through four molecules from paper PMC6953607 (Nature microbiology, 2019).

Molecules are shown by their SMILES. Values after ≈ are worked out from the molar mass of the structure shown.

The test system of series [1] is K. pneumoniae. As to the kind of experiment: MIC, micro-dilution broth. Type of series: cell-based.
The conditions of series [2]: open-label clinical trial ref 26; cited from earlier work.
Series [3] has as its system S. aureus ATCC29213. Nature of the series: MIC, micro-dilution broth. The class given is cell-based. On the technique in general: In broth dilution the organism is exposed to a series of concentrations in liquid medium.
The subject of series [4] is E. coli MG1655. Nature of the series: Accumulation assay, LC-MS/MS. Type of series: cell-based. Conditions: E. coli MG1655, 50 μM compound, up to 2 h.
For series [5], the system named is A. baumannii. As to the kind of experiment: MIC, micro-dilution broth. Type of series: cell-based.
Series [6] deals with P. aeruginosa PA01. As to the kind of experiment: MIC, micro-dilution broth. Type of series: cell-based.
Series [7] has as its system E. cloacae. As to the kind of experiment: MIC, micro-dilution broth. The class given is cell-based. The conditions noted are these: E. cloacae ATCC 29893.
Series [8] has as its system E. coli. Nature of the series: MIC, micro-dilution broth. The conditions noted are these: Escherichia coli, E. coli strains with intact outer membranes. Type of series: cell-based.
Series [9] deals with S. aureus. The conditions noted are these: cited from earlier work.
The nature of series [10]: Mouse MTD. Type of series: in vivo, C57BL/6 mice. Conditions: IP, mice monitored 2 weeks.
For series [11], the system named is E. coli MG1655 harboring FabI variants. As to the kind of experiment: MIC against Debio-1452-NH3-resistant colonies. The class given is cell-based.

With `Cc1c(CN(C)C(=O)/C=C/c2cnc3c(c2)CCC(=O)N3)oc2ccccc12` [Debio-1452], the minimum inhibitory concentration (MIC) (commonly the least concentration at which growth counts as inhibited) in series [1] (K. pneumoniae BAA-1705) is above 32 µg/mL; in series [1] (K. pneumoniae S47889), above 32 µg/mL; in [3] (S. aureus ATCC 29213), 0.008 µg/mL (≈ 0.0213 µM); in [5] (A. baumannii F19521), above 32 µg/mL; in [5] (A. baumannii W41979) it was above 32 µg/mL; in series [6] it was above 32 µg/mL. In addition, the minimal inhibitory concentration (MIC) in [7] and in [8] was above 32 µg/mL in each case. Besides, in series [2], the efficacy in patients result is reported as “marked efficacy”. In addition, the “fold increase in MIC in the presence of serum” value in [3] (S. aureus, human serum) was 8 fold. For the same molecule, the accumulation result in [4] was “no statistically significant accumulation over negative controls”. In series [9], the “efficacy in animal models of S. aureus infections” value is “marked efficacy”.

Turning to `Cc1c(CN(C)C(=O)/C=C/c2cnc3c(c2)CC(CCN)C(=O)N3)oc2ccccc12.Cl` (stereo not drawn) [Compound 3], in [10], the “well tolerated single dose” value stood at 100 mg/kg.

For the molecule `Oc1cc(Cl)ccc1Oc1ccc(Cl)cc1Cl` [Triclosan], the cross-resistance result in series [11] (A116V mutants resistant to Debio-1452-NH3) is listed as “no cross-resistance”; in [11] (G148S mutants resistant to Debio-1452-NH3), “minimal cross-resistance”.

Turning to `Cc1c(CN(C)C(=O)/C=C/c2cnc3c(c2)CC(NC(=O)OC(C)(C)C)C(=O)N3)oc2ccccc12` (stereo not drawn) [Compound 8], the minimal inhibitory concentration (MIC) in [1] (K. pneumoniae S47889) is above 32 µg/mL; in [1] (Klebsiella pneumoniae, BAA1705, K. pneumoniae BAA-1705), above 32 µg/mL; in [5] (A. baumannii W41979) it was above 32 µg/mL; in series [5] (Acinetobacter baumannii, A. baumannii F19521) it was above 32 µg/mL; in [6], above 32 µg/mL; in series [7], above 32 µg/mL.
